We go through 1 compound from patent publication US6391303B1, “Methods and compositions for inducing oral tolerance in mammals” (Emisphere Technologies, Inc., priority 1996, dated 2002).

Experiment [1] has as its system anti-HA (influenza) IgG antibodies. Put plainly: ELISA for serum anti-HA IgG after single oral dose of influenza vaccine with delivery agent. The class given is in vivo, BALB/c mice. The settings on record: single oral dose 15 μg influenza vaccine A/Johannesburg/39/94 (H3N2) + 500 mg/kg delivery agent. The protocol: Ten BALB/c mice were administered a single oral dose of 15 μg of influenza antigen [influenza vaccine A/Johannesburg/39/94 (H3N2)] per mouse with 500 mg/kg of E352.
1. Coat plates with HA antigen, 10 μg/mL in carbonate buffer.
3. Block with Superblock™ or 1/10 diluted Bovine Serum Albumin (BSA).
4. Add 100 μL per well of diluent (Superblock™ or 1/15 diluted BSA) to all except the top row.
5. In the first row, add 150 μL per well of 1/100 diluted test serum in duplicate and serially dilute 3× down the plate. Leave 2 empty wells as background.
6. Incubate 2 hours at room temperature.
8. To each well, add 100 μl of IgG isotype-specific anti-mouse alkaline-phosphatase conjugated antibody (diluted with 4% PEG 6000).20. Incubate overnight at 4/C.
10. Add 100 μL per well of p-nitrophenyl phosphate (pNPP) substrate solution and incubate in the dark with shaking for 30 minutes.
11. Read and record OD405 after subtracting the background absorbance.

Experiment [2] has as its system Experimental Autoimmune Encephalomyelitis (EAE).
Protocol: Two days after the (last) oral dose, all groups were challenged in the footpad with 0.05 mg of MBP emulsified with Complete Freund's Adjuvant containing Mycobacterium tuberculosis H37Ra, 4 mg/ml. Clinical signs of disease were observed starting on Day 11 after the challenge and rated on a scale of 0 (no disease) to 5 (death).
Where [3] appears, read: single dose MBP + delivery agent versus one or five doses of MBP alone.

Consider `O=C(O)CCCc1ccc(NC(=O)c2ccccc2O)cc1` [E352, 4-[4-(N-salicyloyl)]aminophenyl butyric acid], for which the “serum anti-HA IgG titer relative to control fed only influenza antigen” value in experiment [1] is “significantly suppressed the production of anti-influenza antibodies”. For the same compound, in experiment [2] (setting [3]), the “Mean Disease Index per group (highest mean score multiplied by the duration of symptoms)” value was “suppressed these disease parameters significantly” and the “mean Maximal Score per group” value is listed as “suppressed these disease parameters significantly”. For the same compound, the “mean day of onset of paralysis” value in experiment [2] (single oral dose 1.0 mg MBP alone or with delivery agent, day after challenge) stood at 16 days. Moreover, in experiment [2] (single oral dose 1.0 mg MBP with delivery agent, footpad challenge 0.05 mg MBP/CFA, scale 0 to 5), the “clinical disease (Mean Clinical Score) of EAE” value is on record as “suppression of clinical disease”.
